According to patent US5622948A, “Pyrrole pyridazine and pyridazinone anti-inflammatory agents” (Syntex (U.S.A.) Inc., priority 1994, dated 1997):
Where “and” joins values, the source holds several entries; their conditions need not be identical. Equal entries are not always repeated. Entries after “also recorded” stand apart in the source; their conditions may differ. Where two headings read alike, the source gives them in different places.

Key:
[1] = biological target: T1, COX II (Homo sapiens, UniProt P35354); experiment: PGE2 production in human adherent monocytes stimulated with LPS; assay type: cell-based; conditions: EIA, read-out: COX II IC50, inhibition of PGE2 production
T1 sequence (P35354 18-604): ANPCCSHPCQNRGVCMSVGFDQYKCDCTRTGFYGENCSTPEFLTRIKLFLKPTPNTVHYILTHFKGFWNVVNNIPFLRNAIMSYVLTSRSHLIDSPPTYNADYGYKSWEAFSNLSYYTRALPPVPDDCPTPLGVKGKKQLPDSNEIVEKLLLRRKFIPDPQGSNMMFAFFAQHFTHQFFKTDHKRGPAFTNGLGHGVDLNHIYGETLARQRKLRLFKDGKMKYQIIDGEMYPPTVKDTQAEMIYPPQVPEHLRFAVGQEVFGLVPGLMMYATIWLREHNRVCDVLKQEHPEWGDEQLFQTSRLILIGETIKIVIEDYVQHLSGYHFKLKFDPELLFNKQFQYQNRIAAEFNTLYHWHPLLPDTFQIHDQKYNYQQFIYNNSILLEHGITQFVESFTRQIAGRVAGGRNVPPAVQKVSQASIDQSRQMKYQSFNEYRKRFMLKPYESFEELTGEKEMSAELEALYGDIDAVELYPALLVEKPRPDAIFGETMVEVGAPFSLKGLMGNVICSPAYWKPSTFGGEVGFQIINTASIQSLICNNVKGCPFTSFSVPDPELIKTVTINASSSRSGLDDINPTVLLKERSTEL
Experimental: (§1) A summary of activities of Compound (16) against COX I and COX II in cell-free enzyme preparations and whole cells is presented in Table 1. The following abbreviations are used: AA is arachidonic acid, IL-1 is interleukin 1, PMA is phorbol myristate acetate, A23187 is a calcium ionophore (Sigma), BSA is bovine serum albumin and LPS is a lipopolysaccharide (Sigma).
Human adherent monocytes
30 min incubation with Compound (16)
18 hr stimulation with LPS
a) 10 min activation, A23187 + PMA
washing, transfer to fresh media
(§2) b) 30 min activation, A23187 + PMA
c) 10 min activation, 20 μM AA
(§3) d) 30 min activation, 20 μM AA
(§4) EIA determination of PGE2

[2] = biological target: T1, COX II; experiment: radiometric assay, COX II inhibition (human recombinant, baculovirus expressed, partially purified); assay type: biochemical; set-up: A 1.8 Kb DNA fragment containing the coding region of human COX II was generated by PCR; made in house; host or cells: Sf9 insect cells, baculovirus
In short: (§5)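 Partially purified baculovirus-expressed human enzyme preincubated with compound, 2 mM phenol (5 min) then 1 μM hematin (5 min). Reaction in Tris-HCl pH 7.9 with 20 μM 1-[14C]arachidonate for 45 s at room temperature, acid-stopped; oxygenated products isolated on Sep-Pak and counted by scintillation.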

[3] = two week range finding toxicity study in rats; assay type: in vivo, rat
Experimental: A two week range finding study in rats was carried out at daily doses of 10, 30, 100 and 300 mg/kg of Compound (16).

[4] = biological target: T2, COX I (Homo sapiens, UniProt P23219); experiment: radiometric assay, COX I inhibition (human recombinant, baculovirus expressed, partially purified); assay type: biochemical; set-up: A 2 Kb fragment containing the coding region of COX I; made in house; host or cells: Sf9 insect cells, baculovirus (cDNA from Oxford Biomedical Research); conditions: 10 min incubation with compound; 45 sec incubation with 20 μM AA; separation of radioactive products; read-out: COX I IC50
In short: as §5

[5] = system: COX I; experiment: PGE2 production in freshly isolated human monocytes; assay type: cell-based; conditions: EIA, cells may be expressing COX II constitutively, read-out: COX I IC50, inhibition of PGE2 production
Experimental: as §1
Human monocytes 30 min incubation with Compound (16)
freshly isolated a) 10 min activation, A23187 + PMA
These cells may be expressing COX II
as §2
constitutively c) 10 min activation, 20 μM AA
as §3, §4

[6] = Pharmacokinetics in rat and monkey; assay type: in vivo
From the text: The pharmacokinetics of Compound (16) was studied in rat and monkey after intravenous and oral administration in solution (ethanol/polyethylene glycol/water, 1/5/4) or SSV.

[7] = biological target: T2, COX I; experiment: radiometric assay, COX I inhibition (human recombinant, baculovirus expressed, partially purified); assay type: biochemical; set-up: A 2 Kb fragment containing the coding region of COX I; made in house; host or cells: Sf9 insect cells, baculovirus (cDNA from Oxford Biomedical Research); conditions: very low substrate concentration
[8] = two week range finding toxicity study in cynomolgus monkeys; assay type: in vivo, cynomolgus monkey; conditions: 10, 30, 100 and 300 mg/kg daily, two weeks
Experimental: A two week range finding study in cynomolgus monkeys was carried out at daily doses of 10, 30, 100 and 300 mg/kg of Compound (16).

[9] = 30 min incubation; a) 10 min activation, A23187 + PMA
[10] = 30 min incubation; b) 30 min activation, A23187 + PMA
[11] = 30 min incubation; c) 10 min activation, 20 μM AA
[12] = 30 min incubation; d) 30 min activation, 20 μM AA
[13] = 10, 30, 100 and 300 mg/kg daily, two weeks

T2 sequence (P23219 24-599): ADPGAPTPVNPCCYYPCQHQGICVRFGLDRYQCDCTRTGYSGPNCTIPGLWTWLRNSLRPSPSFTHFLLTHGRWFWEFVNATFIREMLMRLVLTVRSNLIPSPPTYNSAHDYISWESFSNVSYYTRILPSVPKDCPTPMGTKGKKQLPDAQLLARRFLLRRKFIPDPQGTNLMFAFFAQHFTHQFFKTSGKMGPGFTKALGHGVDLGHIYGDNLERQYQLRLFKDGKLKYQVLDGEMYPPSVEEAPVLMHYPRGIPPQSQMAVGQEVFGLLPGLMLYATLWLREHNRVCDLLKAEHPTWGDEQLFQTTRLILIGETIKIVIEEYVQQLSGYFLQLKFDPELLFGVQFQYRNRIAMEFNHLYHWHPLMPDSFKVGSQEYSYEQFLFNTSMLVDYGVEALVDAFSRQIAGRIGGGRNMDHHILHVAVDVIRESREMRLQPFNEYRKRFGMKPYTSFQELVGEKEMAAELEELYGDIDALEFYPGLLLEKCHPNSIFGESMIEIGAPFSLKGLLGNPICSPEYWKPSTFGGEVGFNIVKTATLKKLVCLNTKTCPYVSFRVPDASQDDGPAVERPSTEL

## Cc1cc(Cc2ccc(=O)[nH]n2)n(C)c1C(=O)c1ccc(Cl)cc1 [Compound 16, 6-[1,4-dimethyl-5-(4chloro-benzoyl)-1H-pyrrol-2-ylmethyl]-2H-pyridazin-3-one]
[1]; [9]
  IC50: 0.2 µM
[1]; [10]
  IC50: < 0.1 µM
[1]; [11]
  IC50: 2.8 µM
[1]; [12]
  IC50: 0.54 µM
[2]
  type of inhibition of COX II: potent, time-dependent, reversible inhibition
[2]; 10 min incubation with compound, 45 sec incubation with 20 μM AA, separation of radioactive products, read-out: COX II IC50
  IC50: 0.58 to 0.9 µM and 0.58 µM and 0.9 µM and 0.64 µM
[2]; COX II over COX I
  selectivity for COX II: significantly more selective for COX II than currently available NSAIDs; also recorded: highly selective for COX II
[3]; [13]
  clinical chemistry: No clinical chemistry abnormalities were detected
  clinical signs: no adverse clinical signs were noted
  gross necropsy findings: no drug-related gross necropsy findings
  histopathological findings: no histopathological findings
  lesions in the stomach or intestines: no lesions were noted in the stomach or intestines
[3]; up to 300 mg/kg/day for 14 days
  intestinal lesions in toxicology range-finding study: no intestinal lesions were observed
[4]
  IC50: > 1000 µM
[5]; [9]
  IC50: 5.2 µM
[5]; [10]
  IC50: 0.31 µM
[5]; [11]
  IC50: 4.6 µM
[5]; [12]
  IC50: > 10 µM
[6]; 1-300 mg/kg
  dose proportionality: exhibited dose proportionality over a broad range of doses
[6]; in vivo, after intravenous dosing
  half-life: 2 to 3 h
[6]; in vivo, rats and monkeys, oral
  bioavailability: 40 to 80%
[7]
  type of inhibition of COX I: weak, competitive, non-time dependent inhibition
[8]
  clinical signs, clinical chemistry, gross pathology or histopathology: No abnormalities were observed
